Target: T1, YkuR protein (Bacillus subtilis, UniProt O34916)
T1 construct: the full length ykuR gene product could be separated from internally digested gene product; made in house; host or cells: E. coli BL21 (pET24a)
Assay: YkuR surrogate fluorometric assay (sodium hippurate substrate)
Type: biochemical, B. subtilis
Conditions: purified YkuR protein expressed in E. coli; phenanthroline added at increasing concentrations; FIG. 3
Description: A fluorometric assay for YkuR and its homologues has been developed using sodium hippurate (benzoyl glycine) as a substrate. Cleavage by YkuR releases free glycine which can be detected using F-phthaldialdehyde. The assay is performed in a total volume of 100 Fl per well in black 96 well microtitre plates. 40 Fl of YkuR protein 20 Fg/ml in 10 mM Hepes pH 6.8 containing 0.5 mM dithiothreitol and 10 mM potassium chloride) is added to the appropriate wells of a 96-well plate. Appropriate concentrations of test compounds dissolved in 20 Fl of 100% DMSO are added, followed by 40 Fl of hippuric acid (250 mM in 50 mM Hepes pH 6.8 containing 0.05% Brij 35). Control wells lack either enzyme or test compound. The reactions are incubated for 1 hour at 37 EC. Following incubation 100 Fl of OPA Reagent (20 mM F-phthaldialdehyde in 50 mM borate buffer pH 9.5 containing 0.1% $-mercaptoethanol) is added to each well. The fluorescence at 460 nm is measure with an SLT Fluostar fluorometer using 355 nm excitation.
Assay using purified YkuR protein expressed in E. coli as described above. Phenanthroline, a known inhibitor of metalloprotease enzyme activity, was added at increasing concentrations to inhibit metalloenzyme activity.

T1 sequence (O34916 whole entry): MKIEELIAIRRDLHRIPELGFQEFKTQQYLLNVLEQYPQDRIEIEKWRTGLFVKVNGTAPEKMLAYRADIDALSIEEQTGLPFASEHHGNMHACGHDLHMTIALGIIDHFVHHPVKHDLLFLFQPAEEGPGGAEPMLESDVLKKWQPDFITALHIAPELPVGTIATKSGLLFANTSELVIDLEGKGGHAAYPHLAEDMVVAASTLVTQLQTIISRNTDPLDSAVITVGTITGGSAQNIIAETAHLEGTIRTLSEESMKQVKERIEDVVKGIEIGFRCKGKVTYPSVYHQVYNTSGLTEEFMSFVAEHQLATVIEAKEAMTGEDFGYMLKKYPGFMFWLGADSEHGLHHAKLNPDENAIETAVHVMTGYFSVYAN

Q: How did the IC50 turn out when `c1cnc2c(c1)ccc1cccnc12` [Phenanthroline] was run?
A: 96 µM
